Data taken from the NIST ThermoML archive (doi:10.1021/je200682t).
Numbers after ± are expanded uncertainties.

Assay: relative permittivity at zero frequency (dimensionless)
Details: 243.15 K; 101.33 kPa; Liquid; Parallel plate capacitor

First: O=C1CCC1 [cyclobutanone]
Second: O=C1CCCC1 [cyclopentanone]
The “relative permittivity at zero frequency” value of the first is higher: 17.96 ± 0.02 for the first, 15.66 ± 0.04 for the second.

With `O=C1CCCCC1` [cyclohexanone] the “relative permittivity at zero frequency” value was 19.75 ± 0.02.

Same assay, conditions: 245.65 K; 101.33 kPa; Liquid; Parallel plate capacitor

First: O=C1CCC1 [cyclobutanone]
Second: O=C1CCCC1 [cyclopentanone]
The “relative permittivity at zero frequency” value of the first is higher: 17.81 ± 0.02 for the first, 15.56 ± 0.04 for the second.

Going from `O=C1CCCCCC1` [cycloheptanone] to `O=C1CCCCC1` [cyclohexanone], the “relative permittivity at zero frequency” value rises from 15.35 ± 0.02 to 19.54 ± 0.02.

Same assay, conditions: 248.15 K; 101.33 kPa; Liquid; Parallel plate capacitor

Going from `O=C1CCC1` [cyclobutanone] to `O=C1CCCC1` [cyclopentanone], the “relative permittivity at zero frequency” value falls from 17.66 ± 0.02 to 15.46 ± 0.04.

Going from `O=C1CCCCCC1` [cycloheptanone] to `O=C1CCCCC1` [cyclohexanone], the “relative permittivity at zero frequency” value rises from 15.22 ± 0.02 to 19.34 ± 0.02.

Same assay, conditions: 250.65 K; 101.33 kPa; Liquid; Parallel plate capacitor

First: O=C1CCC1 [cyclobutanone]
Second: O=C1CCCC1 [cyclopentanone]
The “relative permittivity at zero frequency” value of the first is higher: 17.51 ± 0.02 for the first, 15.36 ± 0.04 for the second.

Going from `O=C1CCCCCC1` [cycloheptanone] to `O=C1CCCCC1` [cyclohexanone], the “relative permittivity at zero frequency” value rises from 15.09 ± 0.02 to 19.13 ± 0.02.

Same assay, conditions: 253.15 K; 101.33 kPa; Liquid; Parallel plate capacitor

Going from `O=C1CCC1` [cyclobutanone] to `O=C1CCCC1` [cyclopentanone], the “relative permittivity at zero frequency” value falls from 17.37 ± 0.02 to 15.26 ± 0.04.

First: O=C1CCCCCC1 [cycloheptanone]
Second: O=C1CCCCC1 [cyclohexanone]
The “relative permittivity at zero frequency” value of the first is lower: 14.97 ± 0.02 for the first, 18.93 ± 0.02 for the second.

Same assay, conditions: 255.65 K; 101.33 kPa; Liquid; Parallel plate capacitor

First: O=C1CCC1 [cyclobutanone]
Second: O=C1CCCC1 [cyclopentanone]
The “relative permittivity at zero frequency” value of the first is higher: 17.22 ± 0.02 for the first, 15.15 ± 0.04 for the second.

Going from `O=C1CCCCCC1` [cycloheptanone] to `O=C1CCCCC1` [cyclohexanone], the “relative permittivity at zero frequency” value rises from 14.85 ± 0.02 to 18.73 ± 0.02.

Same assay, conditions: 258.15 K; 101.33 kPa; Liquid; Parallel plate capacitor

Compared with `O=C1CCC1` [cyclobutanone], `O=C1CCCC1` [cyclopentanone] is lower in “relative permittivity at zero frequency” value: 17.07 ± 0.02 for the first, 15.05 ± 0.04 for the second.

First: O=C1CCCCCC1 [cycloheptanone]
Second: O=C1CCCCC1 [cyclohexanone]
The “relative permittivity at zero frequency” value of the first is lower: 14.72 ± 0.02 for the first, 18.54 ± 0.02 for the second.

Same assay, conditions: 260.65 K; 101.33 kPa; Liquid; Parallel plate capacitor

Compared with `O=C1CCC1` [cyclobutanone], `O=C1CCCC1` [cyclopentanone] is lower in “relative permittivity at zero frequency” value: 16.93 ± 0.02 for the first, 14.95 ± 0.04 for the second.

Going from `O=C1CCCCCC1` [cycloheptanone] to `O=C1CCCCC1` [cyclohexanone], the “relative permittivity at zero frequency” value rises from 14.57 ± 0.02 to 18.34 ± 0.02.

Same assay, conditions: 263.15 K; 101.33 kPa; Liquid; Parallel plate capacitor

First: O=C1CCC1 [cyclobutanone]
Second: O=C1CCCC1 [cyclopentanone]
The “relative permittivity at zero frequency” value of the first is higher: 16.79 ± 0.02 for the first, 14.85 ± 0.04 for the second.

First: O=C1CCCCCC1 [cycloheptanone]
Second: O=C1CCCCC1 [cyclohexanone]
The “relative permittivity at zero frequency” value of the first is lower: 14.47 ± 0.02 for the first, 18.15 ± 0.02 for the second.

Same assay, conditions: 265.65 K; 101.33 kPa; Liquid; Parallel plate capacitor

Going from `O=C1CCC1` [cyclobutanone] to `O=C1CCCC1` [cyclopentanone], the “relative permittivity at zero frequency” value falls from 16.65 ± 0.02 to 14.75 ± 0.04.

Compared with `O=C1CCCCCC1` [cycloheptanone], `O=C1CCCCC1` [cyclohexanone] is higher in “relative permittivity at zero frequency” value: 14.36 ± 0.02 for the first, 17.96 ± 0.02 for the second.

Same assay, conditions: 268.15 K; 101.33 kPa; Liquid; Parallel plate capacitor

First: O=C1CCC1 [cyclobutanone]
Second: O=C1CCCC1 [cyclopentanone]
The “relative permittivity at zero frequency” value of the first is higher: 16.51 ± 0.02 for the first, 14.65 ± 0.04 for the second.

Going from `O=C1CCCCCC1` [cycloheptanone] to `O=C1CCCCC1` [cyclohexanone], the “relative permittivity at zero frequency” value rises from 14.25 ± 0.02 to 17.78 ± 0.02.

Same assay, conditions: 270.65 K; 101.33 kPa; Liquid; Parallel plate capacitor

Compared with `O=C1CCC1` [cyclobutanone], `O=C1CCCC1` [cyclopentanone] is lower in “relative permittivity at zero frequency” value: 16.37 ± 0.02 for the first, 14.55 ± 0.04 for the second.

First: O=C1CCCCCC1 [cycloheptanone]
Second: O=C1CCCCC1 [cyclohexanone]
The “relative permittivity at zero frequency” value of the first is lower: 14.14 ± 0.02 for the first, 17.6 ± 0.02 for the second.

Same assay, conditions: 273.15 K; 101.33 kPa; Liquid; Parallel plate capacitor

First: O=C1CCC1 [cyclobutanone]
Second: O=C1CCCC1 [cyclopentanone]
The “relative permittivity at zero frequency” value of the first is higher: 16.24 ± 0.02 for the first, 14.45 ± 0.04 for the second.

First: O=C1CCCCCC1 [cycloheptanone]
Second: O=C1CCCCC1 [cyclohexanone]
The “relative permittivity at zero frequency” value of the first is lower: 14.03 ± 0.02 for the first, 17.42 ± 0.02 for the second.

Same assay, conditions: 275.65 K; 101.33 kPa; Liquid; Parallel plate capacitor

First: O=C1CCC1 [cyclobutanone]
Second: O=C1CCCC1 [cyclopentanone]
The “relative permittivity at zero frequency” value of the first is higher: 16.11 ± 0.02 for the first, 14.35 ± 0.04 for the second.

Going from `O=C1CCCCCC1` [cycloheptanone] to `O=C1CCCCC1` [cyclohexanone], the “relative permittivity at zero frequency” value rises from 13.91 ± 0.02 to 17.24 ± 0.02.

Same assay, conditions: 278.15 K; 101.33 kPa; Liquid; Parallel plate capacitor

Going from `O=C1CCC1` [cyclobutanone] to `O=C1CCCC1` [cyclopentanone], the “relative permittivity at zero frequency” value falls from 15.98 ± 0.02 to 14.25 ± 0.04.

First: O=C1CCCCCC1 [cycloheptanone]
Second: O=C1CCCCC1 [cyclohexanone]
The “relative permittivity at zero frequency” value of the first is lower: 13.8 ± 0.02 for the first, 17.07 ± 0.02 for the second.

Same assay, conditions: 280.65 K; 101.33 kPa; Liquid; Parallel plate capacitor

Compared with `O=C1CCC1` [cyclobutanone], `O=C1CCCC1` [cyclopentanone] is lower in “relative permittivity at zero frequency” value: 15.85 ± 0.02 for the first, 14.15 ± 0.04 for the second.

Compared with `O=C1CCCCCC1` [cycloheptanone], `O=C1CCCCC1` [cyclohexanone] is higher in “relative permittivity at zero frequency” value: 13.69 ± 0.02 for the first, 16.9 ± 0.02 for the second.

Same assay, conditions: 283.15 K; 101.33 kPa; Liquid; Parallel plate capacitor

First: O=C1CCC1 [cyclobutanone]
Second: O=C1CCCCC1 [cyclohexanone]
The “relative permittivity at zero frequency” value of the first is lower: 15.72 ± 0.02 for the first, 16.73 ± 0.02 for the second.

In the case of `O=C1CCCCCC1` [cycloheptanone], the “relative permittivity at zero frequency” value is reported as 13.58 ± 0.02.
